# Tests used:
# [1] = system: pilocarpine-induced seizures; test: pilocarpine model of (temporal lobe) epilepsy; assay type: in vivo
# Protocol: Isolated CBD was injected intra-peritoneally (IP) in the standard vehicle (1:1:18 ethanol:Cremophor:0.9% w/v NaCl) at doses of 50, 100 and 200 mg/kg alongside animals that received vehicle alone at a matched volume. 15 minutes later methylscopolamine (1 mg/kg; to reduce peripheral muscarinic effects of pilocarpine) was administered followed, 45 minutes later by pilocarpine (380 mg/kg, IP) administration.
# [2] = system: grand mal patients; details: 200-300 mg of cannabidiol plus regular medication; cited from earlier work
# [3] = system: epileptic patients; details: 200-300 mg of cannabidiol per day in addition to standard antiepileptic drugs; 12 epileptic patients; cited from earlier work
# [4] = system: seizure frequency in a single patient; details: 900-1200 mg of cannabidiol a day for 10 months; cited from earlier work
# [5] = system: institutionalized children not responding to standard treatment; details: 5 institutionalized children not responding to phenobarbital and phenoytin; cited from earlier work
# [6] = CBD 0 mg/kg, Phenobarbitol 10 mg/kg
# [7] = CBD 0 mg/kg, Phenobarbitol 20 mg/kg
# [8] = CBD 0 mg/kg, Phenobarbitol 40 mg/kg
# [9] = CBD 100 mg/kg, Phenobarbitol 0 mg/kg
# [10] = significance of effect, pilocarpine model
smiles,measurement,setting,value
"CCC1(c2ccccc2)C(=O)NC(=O)NC1=O [Phenobarbitol, phenobarbital]",Onset latency,[1]; [6],800 s
same,Seizure free (%),[1]; [6],25%
same,Onset latency,[1]; [7],900 s
same,Seizure free (%),[1]; [7],55%
same,Onset latency,[1]; [8],1800 s
same,Seizure free (%),[1]; [8],75%
"C=C(C)[C@@H]1CCC(C)=C[C@H]1c1c(O)cc(CCCCC)cc1O [CBD, cannabidiol]",Onset latency,[1]; [9],500 s
same,Seizure free (%),[1]; [9],0%
same,ALL EPISODES Mean severity of episodes,[1]; [10],* (* = p < 0.05)
same,EPISODE 2 Severity,[1]; [10],* (* = p < 0.05)
same,patients who remained unchanged,[2],1
same,patients who showed complete improvement,[2],3
same,patients who showed minor improvement,[2],2
same,patients who showed partial improvement,[2],2
same,unwanted effect,[2],mild sedation
same,improvement in seizure frequency,[3],no significant improvement in seizure frequency
same,seizure frequency,[4],markedly reduced
"CCCCCc1cc(O)c2c(c1)OC(C)(C)[C@@H]1CCC(C)=C[C@@H]21 [THC, tetrahydrocannabinol]",seizure outcome,[5],"One became entirely free of seizures, one became almost completely free of seizures, and the other three did no worse than before"
"CCCC(CCC)C(=O)O [Valproate, valproate]",ALL EPISODES Mean duration of episodes,[1]; [10],* (* = p < 0.05)
same,ALL EPISODES Mean number of episodes,[1]; [10],** (** = p < 0.01)
same,ALL EPISODES Mean severity of episodes,[1]; [10],** (** = p < 0.01)
same,ALL EPISODES Mean time spent in episodes,[1]; [10],* (* = p < 0.05)
same,ALL EPISODES Percentage episode free,[1]; [10],** (** = p < 0.01)
same,ALL EPISODES Percentage ≥3 episodes,[1]; [10],# (# = p < 0.01)
same,EPISODE 1 Latency,[1]; [10],** (** = p < 0.01)
same,EPISODE 1 Severity,[1]; [10],* (* = p < 0.05)
same,EPISODE 2 Duration,[1]; [10],# (# = p < 0.01)
same,EPISODE 2 Latency,[1]; [10],# (# = p < 0.01)

# Source: patent publication US12357586B2, “Use of the phytocannabinoid cannabidiol (CBD) in combination with a standard anti-epileptic drug (SAED) in the treatment of epilepsy” (JAZZ PHARMACEUTICALS RESEARCH UK LIMITED, priority 2011, dated 2025)
